Source: patent publication US10111874B2, “Combination therapies for treatment of cancer” (Araxes Pharma LLC, priority 2014, dated 2018)

The compounds below were run against T1, KRAS G12C 1-169, his-tagged protein, GDP-loaded (Homo sapiens, UniProt P01116, G12C) (assay: Biochemical assay: covalent binding to KRAS G12C analyzed by mass spectrometry). Conditions: compounds 1-47, measured at 24 h.
T1 construct: KRAS G12C 1-169, his-tagged protein, GDP-loaded
Also: test concentration or dose not given here.

T1 sequence (P01116 1-169 isoform P01116-2 G12C): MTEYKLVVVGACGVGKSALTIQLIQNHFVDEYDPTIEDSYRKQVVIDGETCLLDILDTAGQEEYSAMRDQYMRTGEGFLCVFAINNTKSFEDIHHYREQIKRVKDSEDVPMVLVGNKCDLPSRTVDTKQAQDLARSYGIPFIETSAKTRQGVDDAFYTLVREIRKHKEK

Row | Structure (SMILES) | Binding %
1 | C=CC(=O)N1CCN(c2ncnc3cc(Cl)c(-c4cccc(Cl)c4)cc23)CC1 [Compound I-5, 1-(4-(7-chloro-6-(3-chlorophenyl)quinazolin-4-yl)piperazin-1-yl)prop-2-en-1-one] | +++ (+++indicates binding activity greater than 50% and up to 75%)
2 | C=CC(=O)N1CCN(c2ncnc3cc(Cl)c(-c4cccs4)cc23)CC1 [Compound I-21, 1-(4-(7-chloro-6-(thiophen-2-yl)quinazolin-4-yl)piperazin-1-yl)prop-2-en-1-one] | +++ (+++indicates binding activity greater than 50% and up to 75%)
3 | C=CC(=O)N1CC(Nc2ncnc3cc(Cl)c(-c4ccccc4Cl)cc23)C1 [Compound I-30, 1-(3-(7-chloro-6-(2-chlorophenyl)quinazolin-4-ylamino)azetidin-1-yl)prop-2-en-1-one] | + (+indicates binding activity from 5% to 25%)

Same assay, conditions: compounds 48-246, measured at 2 h

Row | Structure (SMILES) | Binding %
4 | C=CC(=O)N1CCN(c2ncnc3cc(-c4cccc5cnccc45)c(Cl)cc23)CC1 [Compound I-136, 1-(4-(6-chloro-7-(isoquinolin-5-yl)quinazolin-4-yl)piperazin-1-yl)prop-2-en-1-one] | ++ (++indicates binding activity greater than 25% and up to 50%)
5 | C=CC(=O)N1CCN(c2ncnc3cc(-c4cc(F)ccc4F)c(Cl)cc23)CC1 [Compound I-113, 1-(4-(6-chloro-7-(2,5-difluorophenyl)quinazolin-4-yl)piperazin-1-yl)prop-2-en-1-one] | +++ (+++indicates binding activity greater than 50% and up to 75%)
6 | C=CC(=O)N1CCN(c2ncnc3cc(-c4c(O)cccc4F)c(Cl)cc23)CC1 [Compound I-138, 1-(4-(6-chloro-7-(2-fluoro-6-hydroxyphenyl)quinazolin-4-yl)piperazin-1-yl)prop-2-en-1-one] | ++++ (++++indicates binding activity greater than 75%)
7 | C=CC(=O)N1CCN(c2ncnc3cc(-c4cc(O)ccc4Cl)c(C(F)(F)F)cc23)CC1 [Compound I-207, 1-(4-(7-(2-chloro-5-hydroxyphenyl)-6-(trifluoromethyl)quinazolin-4-yl)piperazin-1-yl)prop-2-en-1-one] | ++++ (++++indicates binding activity greater than 75%)
8 | C=CC(=O)N1CCN(c2ncnc3cc(-c4cccc5cn[nH]c45)c(Cl)cc23)CC1 [Compound I-152, 1-(4-(6-chloro-7-(1H-indazol-7-yl)quinazolin-4-yl)piperazin-1-yl)prop-2-en-1-one] | +++ (+++indicates binding activity greater than 50% and up to 75%)
9 | C=CC(=O)N1CCN(c2ncnc3cc(-c4cc(OC(F)(F)F)ccc4F)c(Cl)cc23)CC1 [Compound I-141, 1-(4-(6-chloro-7-(2-fluoro-5-(trifluoromethoxy)phenyl)quinazolin-4-yl)piperazin-1-yl)prop-2-en-1-one] | + (+indicates binding activity from 5% to 25%)
10 | C=CC(=O)N1CCN(c2ncnc3cc(-c4c(O)ccc5ccccc45)c(C(F)(F)F)cc23)CC1 [Compound I-218, 1-(4-(7-(2-hydroxynaphthalen-1-yl)-6-(trifluoromethyl)quinazolin-4-yl)piperazin-1-yl)prop-2-en-1-one] | +++ (+++indicates binding activity greater than 50% and up to 75%)
11 | C=CC(=O)N1CCN(c2c(C#N)cnc3cc(-c4cccc5ccccc45)c(Cl)cc23)CC1 [Compound I-171, 4-(4-acryloylpiperazin-1-yl)-6-chloro-7-(naphthalen-1-yl)quinolin-3-carbonitrile] | +++ (+++indicates binding activity greater than 50% and up to 75%)
12 | CN(C)C/C=C/C(=O)N1CCN(c2ncnc3cc(Cl)c(-c4ccc(Cl)cc4)cc23)CC1C#N (centres unmarked) [Compound I-66, (E)-4-(7-Chloro-6-(4-chlorophenyl)quinazolin-4-yl)-1-(4-(dimethylamino)but-2-enoyl)piperazine-2-carbonitrile] | ++++ (++++indicates binding activity greater than 75%)
13 | C=CC(=O)N1CCN(c2ncnc3cc(-c4ccccc4)c(CC)cc23)CC1 [Compound I-93, 1-(4-(6-ethyl-7-phenylquinazolin-4-yl)piperazin-1-yl)prop-2-en-1-one] | + (+indicates binding activity from 5% to 25%)
14 | C=CC(=O)N1CCN(c2ncnc3cc(Cl)c(-c4ccccc4)cc23)CC1C#N (centres unmarked) [Compound I-52, 1-acryloyl-4-(7-chloro-6-phenylquinazolin-4-yl)piperazine-2-carbonitrile] | ++++ (++++indicates binding activity greater than 75%)
15 | C=CC(=O)N1CCN(c2ncnc3cc(-c4ccccc4OC)c(Cl)cc23)CC1 [Compound I-97, 1-(4-(6-chloro-7-(2-methoxyphenyl)quinazolin-4-yl)piperazin-1-yl)prop-2-en-1-one] | ++ (++indicates binding activity greater than 25% and up to 50%)
16 | C=CC(=O)N1CCN(c2ncnc3cc(-c4cccnc4)c(Cl)cc23)CC1 [Compound I-90, 1-(4-(6-chloro-7-(pyridin-3-yl)quinazolin-4-yl)piperazain-1-yl)prop-2-en-1-one] | + (+indicates binding activity from 5% to 25%)
17 | C=CC(=O)N1CCN(c2ncnc3ccc(-c4ccc(Cl)cc4)cc23)CC1 [Compound I-71, 1-(4-(6-(4-chlorophenyl)quinazolin-4-yl)piperazin-1-yl)prop-2-en-1-one] | + (+indicates binding activity from 5% to 25%)
18 | C=CC(=O)N1CCN(c2ncnc3cc(Cl)c(-c4ccc(Cl)cc4)cc23)C[C@@H]1CO [Compound I-65, (R)-1-(4-(7-chloro-6-(4-chlorophenyl)quinazolin-4-yl)-2-(hydroxymethyl)piperazin-1-yl)prop-2-en-1-one] | + (+indicates binding activity from 5% to 25%)

Same assay, conditions: compounds 247-342, measured at 30 min

Row | Structure (SMILES) | Binding %
19 | C=CC(=O)N1CCN(c2ncnc3c(F)c(-c4ccccc4F)c(C(F)(F)F)cc23)CC1 [Compound I-271] | +++ (+++indicates binding activity greater than 50% and up to 75%)
20 | C=CC(=O)N1CCN(c2nc(OCCN(C)C)nc3cc(-c4c(C)ccc5[nH]ncc45)c(Cl)cc23)CC1 [Compound 314, 1-(4-(6-chloro-2-(2-(dimethylamino)ethoxy)-7-(5-methyl-1H-indazol-4-yl)quinazolin-4-yl)piperazin-1-yl)prop-2-en-1-one] | ++++ (++++indicates binding activity greater than 75%)
21 | C=CC(=O)N1CCN(c2nc(=O)[nH]c3cc(-c4c(C)ccc5[nH]ncc45)c(Cl)cc23)CC1 [Compound 326, 4-(4-acryloylpiperazin-1-yl)-6-chloro-7-(5-methyl-1H-indazol-4-yl)quinazolin-2(1H)-one] | + (+indicates binding activity from 5% to 25%)
22 | C=CC(=O)N1CCN(c2ncnc3cc(-c4cc(O)cc5ccccc45)c(Cl)cc23)CC1 [Compound I-251, 1-(4-(6-chloro-7-(3-hydroxynaphthalen-1-yl)quinazolin-4-yl)piperazin-1-yl)prop-2-en-1-one] | ++++ (++++indicates binding activity greater than 75%)
23 | CC(C)(/C=C(\C#N)C(=O)N1CCN(c2ncnc3cc(-c4ccccc4F)c(Cl)cc23)CC1)CO [Compound I-261, (E)-2-(4-(6-chloro-7-(2-fluorophenyl)quinazolin-4-yl)piperazine-1-carbonyl)-5-hydroxy-4,4-dimethylpent-2-enenitrile] | + (+indicates binding activity from 5% to 25%)
24 | C=CC(=O)N1CCN(c2nc(OCCN3CCOCC3)nc3c(F)c(-c4c(C)ccc5[nH]ncc45)c(Cl)cc23)CC1 [Compound 342, 1-(4-(6-chloro-8-fluoro-7-(5-methyl-1H-indazol-4-yl)-2-(2-morpholinoethoxy)quinazolin-4-yl)piperazin-1-yl)prop-2-en-1-one] | ++++ (++++indicates binding activity greater than 75%)
25 | C=CC(=O)N1CCN(c2ncnc3cc(-c4c(C)ccc5cn[nH]c45)c(Cl)cc23)CC1 [Compound I-268, 1-(4-(6-chloro-7-(6-methyl-1H-indazol-7-yl)quinazolin-4-yl)piperazin-1-yl)prop-2-en-1-one] | +++ (+++indicates binding activity greater than 50% and up to 75%)
26 | C=CC(=O)N1CCN(c2ncnc3c(F)c(-c4cc(-c5c[nH]cn5)ccc4F)c(Cl)cc23)CC1 [Compound I-281, 1-(4-(6-chloro-8-fluoro-7-(2-fluoro-5-(1H-imidazol-4-yl)phenyl)quinazolin-4-yl)piperazin-1-yl)prop-2-en-1-one] | ++ (++indicates binding activity greater than 25% and up to 50%)
27 | C=CC(=O)N1CCN(c2ncnc3c(F)c(-c4c(C)ccc5cn[nH]c45)c(Cl)cc23)CC1 [Compound I-274, 1-(4-(6-chloro-8-fluoro-7-(6-methyl-1H-indazol-7-yl)quinazolin-4-yl)piperazin-1-yl)prop-2-en-1-one] | ++++ (++++indicates binding activity greater than 75%)

Same assay, conditions: determined at 2 hrs

Row | Structure (SMILES) | Binding %
28 | C=CC(=O)N1CC(N2CCN(C(=O)C(C)Nc3cc(C4CCC4)c(Cl)cc3O)CC2)C1 (centres unmarked) [II-59, 1-(3-(4-(2-(4-chloro-5-cyclobutyl-2-hydroxyphenylamino)propanoyl)piperazin-1-yl)azetidin-1-yl)prop-2-en-1-one] | ++ (++indicates binding activity greater than 20%)
29 | C=CC(=O)N1CC(N2CCN(C(=O)CCc3cc(C4CC4)c(Cl)cc3O)CC2)C1 [II-58, 1-(3-(4-(3-(4-Chloro-5-cyclopropyl-2-hydroxyphenyl)propanoyl)piperazin-1-yl)azetidin-1-yl)prop-2-en-1-one] | + (+indicates binding activity from 5% to 20%)
30 | C=CC(=O)N1CCN(C(=O)c2cc(Cl)c(-c3ccccc3)cc2O)CC1 [III-42, 1-(4-(2-Chloro-5-hydroxy-[1,1′-biphenyl]-4-carbonyl)piperazin-1-yl)prop-2-en-1-one] | + (+indicates binding activity from 5% to 20%)
31 | C=CC(=O)N1CC(N2CCN(C(=O)CSc3cc(C4CC4)c(Cl)cc3OC)CC2)C1 [II-65, 1-(3-(4-(2-(4-Chloro-5-cyclopropyl-2-methoxyphenylthio)acetyl)piperazin-1-yl)azetidin-1-yl)prop-2-en-1-one] | + (+indicates binding activity from 5% to 20%)

Same assay, conditions: determined at 24 hrs

Row | Structure (SMILES) | Binding %
32 | C=CC(=O)N1CC(N2CCN(C(=O)Cc3cccc4ccccc34)CC2)C1 [II-24, 1-(3-(4-(2-(naphthalen-1-yl)acetyl)piperazin-1-yl)azetidin-1-yl)prop-2-en-1-one] | + (+indicates binding activity from 5% to 15%)
